Marks after values point to notes of the source that are not given here.
Experiments:
[1] = system: rats fed with high fat diet; assay: blood lipid of rats fed with high fat diet; type: in vivo, SD rats; conditions: 50 mg/kg intragastric, 10 days, serum
Excerpt: Serum total cholesterol kit (batch number 20131112), low density lipoprotein LDL-C kit (batch number 20140114), high density lipoprotein HDL-C kit (batch number 20140413), triglyceride TG kit (batch number 20131226), superoxide dismutase SOD kit (batch number 20140213) and glutamic-pyruvic transaminase ALT kit (batch number 20131006) are purchased from Nanjing Jiancheng Bioengineering Institute.
Methods: after being acclimatized for 1 week, the 200±20 g healthy male SD rats are randomly divided into 4 groups of 8 animals in each. The control group is fed with normal diet, while the other groups are fed with high-fat diet, which is normal diet with 1% cholesterol, 0.2% pig bile sal, 10% lard and 10% egg yolk powder. After being fed for 3 weeks, 10 mg/ml extract solution of 1 ml (which corresponds to 50 mg/kg) is given to different groups of rats by intragastric administration for 10 days successively, and the control group and model group are given with equal amounts of saline. After the last administration, blood is taken to be centrifuged at 3000 rpm in 4[…], and then detect serum total cholesterol, low density lipoprotein and triglyceride TG

normal mice = assay: blood sugar of normal mice; type: in vivo, Kunming species mice; conditions: 50 mg/kg intragastric, 10 days, fasted 10 hours
Protocol: Blood glucose determination kit (batch number 20140403) is purchased from Nanjing Jiancheng Bioengineering Institute.
Methods: after being acclimatized for 1 week, the 20±2 g Kunming species mice are randomly divided into 3 groups of 12 animals in each. 10 mg/ml extract solution of 0.1 ml (which corresponds to 50 mg/kg) is given to different groups of mice by intragastric administration for 10 days successively, and the control group is given with equal amounts of saline. After the last administration, the mice are fasted for 10 hours and blood is collected from orbit, then detect the blood sugar by blood glucose determination kit.

[2] = body weight of hyperglycemia KK-A^y mice; type: in vivo
Protocol: (§1) Materials: accurately weigh the 2 compounds S13 and S28 discussed in example 2, and then add 0.5% CMC-Na to make the solution of 5 mg/ml used for activity test. KK-A^y mice are purchased from Chinese Academy of Medical Sciences & Peking Union Medical College Institute of Animal Studies. Experiments are carried out after adapting to the environment (T=20-24° C., constant humidity: 50-60%, 12 hours light exposure (8:00-20:00), soundproof, free feeding and drinking) for 1 week. Glucometer is purchased from Roche.
(§2) Methods: 10 male C57 mice of 6-8 weeks of 20-22 g are used as normal control group (1). Detect the fasting glucose of male KK-A^y mice, which are 6-8 weeks with the weight of 28-32 g, and divide them into different groups according to the blood sugar level and body weight: (2) model control group, (3) which is administered by compound S13 with the dose of 1 mg/kg, (4) which is administered by compound S13 with the dose of 5 mg/kg, (5) which is administered by compound S13 with the dose of 10 mg/kg, (6) which is administered by compound S13 with the dose of 20 mg/kg, (7) which is administered by compound S28 with the dose of 1 mg/kg, (8) which is administered by compound S28 with the dose of 5 mg/kg, (9) which is administered by compound S28 with the dose of 10 mg/kg, (10) which is administered by compound S28 with the dose of 20 mg/kg, (11) which is administered by metformin with the dose of 8 g/kg, (12) which is administered by compound S13 with the dose of 2.5 mg/kg and metformin with the dose of 4 g/kg, (13) which is administered by compound S13 with the dose of 5 mg/kg and metformin with the dose of 4 g/kg, (14) which is administered by compound S28 with the dose of 2.5 mg/kg and metformin with the dose of […], (15) which is administered by compound S28 with the dose of 5 mg/kg and metformin with the dose of […]. Each group has 8 mice, and is administrated successively for 3 weeks. Model control group is given with equal amounts of 0.5% CMC-Na.
2) Effects on body weight and blood sugar: the body weight of mice are recorded at the 2th, 5th, 8th, 11th, 14th, 17th, 20th day after administration, and blood is collected from tip of tail to detect the blood sugar level (see table 10).

[3] = system: hyperglycemia KK-A^y mice; assay: blood lipid and liver function of hyperglycemia KK-A^y mice; type: in vivo; conditions: 3 weeks
Protocol: as §1, §2
4) After the last administration, the mice are executed under anesthesia, and blood is taken to be centrifuged at 3000 rpm in 4[…]. Serum total cholesterol, low density lipoprotein and triglyceride TG are detected.

## CC(C)=CCC/C(C)=C/CCC1=C[C@@H](c2cc(O)ccc2O)OC1=O [S28, (S,E)-5-(2,5-dihydroxyphenyl)-3-(4,8-dimethylnona-3,7-dien-1-yl)furan-2(5H)-one]
[1]
  ALT: 72.1* U/L
  HDL-C: 0.97 mmol/L
  LDL-C: 0.38** mmol/L
  SOD: 2.10* U/L
  TC: 1.98** mmol/L
  TG: 0.45* mmol/L
Normal mice
  blood sugar: 4.02 mmol/L
[2]
  effect on body weight (in words): litter effect on body weight
[2]; 2st day, 1 mg/kg, groups 3, 7
  Body weight: 30.1 g
[2]; 2st day, 5 mg/kg, groups 4, 8
  Body weight: 30.3 g
[2]; 2st day, 10 mg/kg, groups 5, 9
  Body weight: 30.3 g
[2]; 2st day, 20 mg/kg, groups 6, 10
  Body weight: 30.4 g
[2]; 5st day, 1 mg/kg, groups 3, 7
  Body weight: 30.23 g
[2]; 5st day, 5 mg/kg, groups 4, 8
  Body weight: 30.43 g
[2]; 5st day, 10 mg/kg, groups 5, 9
  Body weight: 30.51 g
[2]; 5st day, 20 mg/kg, groups 6, 10
  Body weight: 30.36 g
[2]; 8st day, 1 mg/kg, groups 3, 7
  Body weight: 30.6 g
[2]; 8st day, 5 mg/kg, groups 4, 8
  Body weight: 30.8 g
[2]; 8st day, 10 mg/kg, groups 5, 9
  Body weight: 30.4 g
[2]; 8st day, 20 mg/kg, groups 6, 10
  Body weight: 30.2 g
[2]; 11st day, 1 mg/kg, groups 3, 7
  Body weight: 30.8 g
[2]; 11st day, 5 mg/kg, groups 4, 8
  Body weight: 31.3 g
[2]; 11st day, 10 mg/kg, groups 5, 9
  Body weight: 31.4 g
[2]; 11st day, 20 mg/kg, groups 6, 10
  Body weight: 30.5 g
[2]; 14st day, 1 mg/kg, groups 3, 7
  Body weight: 31.25 g
[2]; 14st day, 5 mg/kg, groups 4, 8
  Body weight: 31.76 g
[2]; 14st day, 10 mg/kg, groups 5, 9
  Body weight: 32.56 g
[2]; 14st day, 20 mg/kg, groups 6, 10
  Body weight: 30.4 g
[2]; 17st day, 1 mg/kg, groups 3, 7
  Body weight: 31.4 g
[2]; 17st day, 5 mg/kg, groups 4, 8
  Body weight: 31.5 g
[2]; 17st day, 10 mg/kg, groups 5, 9
  Body weight: 32.6 g
[2]; 17st day, 20 mg/kg, groups 6, 10
  Body weight: 30.7 g
[2]; 20st day, 1 mg/kg, groups 3, 7
  Body weight: 32.1 g
[2]; 20st day, 5 mg/kg, groups 4, 8
  Body weight: 31.3 g
[2]; 20st day, 10 mg/kg, groups 5, 9
  Body weight: 32.2 g
[2]; 20st day, 20 mg/kg, groups 6, 10
  Body weight: 30.2 g
[3]; 1 mg/kg, groups 3, 7
  ALT: 72.5** U/L
  AST: 56.5** U/L
  HDL-C: 22.1 mg/dL
  LDL-C: 64** mg/dL
  SOD: 5.12** U/L
  TC: 134** mg/dL
  TG: 325** mg/dL
[3]; 5 mg/kg, groups 4, 8
  ALT: 71.2** U/L
  AST: 63.6** U/L
  HDL-C: 22.3 mg/dL
  LDL-C: 69* mg/dL
  SOD: 4.25* U/L
  TC: 134** mg/dL
  TG: 312** mg/dL
[3]; 10 mg/kg, groups 5, 9
  ALT: 62.5** U/L
  AST: 60.6** U/L
  HDL-C: 22.5 mg/dL
  LDL-C: 69* mg/dL
  SOD: 4.12* U/L
  TC: 135** mg/dL
  TG: 331** mg/dL
[3]; 20 mg/kg, groups 6, 10
  ALT: 61.5** U/L
  AST: 60.6** U/L
  HDL-C: 22.4 mg/dL
  LDL-C: 54** mg/dL
  SOD: 4.34* U/L
  TC: 123** mg/dL
  TG: 312** mg/dL

From patent US10441562B2, “Aromatic farnesyl compound and application thereof” (INSTITUTE OF MICROBIOLOGY, CHINESE ACADEMY OF SCIENCES, priority 2015, dated 2019)
